From PubChem BioAssay AID179 (DTP/NCI, 2004)
Active and inactive are the calls of the source.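 How the source made its calls: active means compounds giving half or more protection of infected cells from virus-caused growth loss, again on retest; inactive means the rest.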

Test system: CEM cells HIV-1 protection, formazan growth assay
Test: NCI AIDS Antiviral Assay
Conditions: for IC50: measured here: growth of uninfected CEM cells
In short: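 CEM (human) cells, HIV-1 infected vs uninfected, 5-point dosing, formazan growth read-out. Retest threshold 50% protection.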

Row | Compound | outcome | EC50 | IC50
1 | O=S(=O)(Oc1ccc2ccccc2c1-c1c(OS(=O)(=O)C(F)(F)F)ccc2ccccc12)C(F)(F)F | inactive | – | –
2 | Cc1cc2c(C(C)C)c(O)c(O)c(C=Nc3cccc(C(F)(F)F)c3)c2c(O)c1-c1c(C)cc2c(C(C)C)c(O)c(O)c(C=Nc3cccc(C(F)(F)F)c3)c2c1O | inactive | – | –
3 | O=C1/C(=C\c2ccccc2)c2ccccc2N1/N=C\c1ccccc1 | – | > 30.9 µM | > 30.9 µM
4 | O=C1OC(c2ccccc2)=N/C1=C\c1cccc2ccccc12 | – | > 120 µM | > 120 µM
5 | O=C(O)c1ccccc1C1c2ccc(Cl)cc2Oc2cc(Cl)ccc21 | – | > 10 µM | > 10 µM
6 | CN(C)c1ccc(/C=C(\C#N)c2ccc(Cl)c(Cl)c2)cc1 | – | > 100 µM | 3.63 µM
7 | NC(CCCC(N)P(=O)(O)O)C(=O)O (stereo not given) | inactive | – | –
8 | CCOC(=O)Cn1c(=O)c(-c2ccccc2NC(C)=O)nc2ccccc21 | – | > 200 µM | > 200 µM
9 | Cc1c(O)c2cccc(-c3ccccc3)c2oc1=O | – | > 200 µM | 132 µM
10 | CCOC(=O)c1sc2c(c1OC(=O)c1cc(OC)c(OC)c(OC)c1)c(=O)n(-c1ccccc1)c(=S)n2-c1ccccc1 | – | > 200 µM | 4.47 µM
11 | N#C/C(=C\c1ccccc1)c1ccc(Cl)cc1 | – | > 200 µM | 57.5 µM
12 | O=C(Nc1ccc(C2=NCCN2)cc1)c1cccc(C(=O)Nc2ccc(C3=NCCN3)cc2)c1Cl | – | 49 µM | 155 µM
13 | CC(=O)c1cccc(NC(=O)C(=O)C(c2cnc3ccc([N+](=O)[O-])cc3n2)[N+](=O)[O-])c1 (stereo not given) | – | > 117 µM | > 117 µM
14 | COc1ccccc1C1(c2c(OC)c(=O)c2=O)SCCCS1 | – | > 200 µM | > 200 µM
15 | CCN(CC)c1c(C)nnn1C1OC(COC(C)=O)C(OC(C)=O)C(OC(C)=O)C1OC(C)=O (stereo not given) | – | > 141 µM | > 141 µM
16 | CCOC(=O)/C=C/SCCNC(=O)OCC | – | > 204 µM | 120 µM
17 | O=C(CCCl)N1CCN(C(=O)CCCl)c2c1c1ccccc1c1ccccc21 | – | > 200 µM | 3.02 µM
18 | NC(=O)C(=O)N/N=C/c1ccc([N+](=O)[O-])o1 | – | > 200 µM | 8.32 µM
19 | Nc1ccc([N+](=O)[O-])c(S(=O)(=O)O)c1 | – | > 1150 µM | > 1150 µM
20 | CCCCCCCCCCCCCCCC(=O)OCC1OC(n2cc(F)c(=O)[nH]c2=O)C(NC(=O)N(CCCl)N=O)C(O)C1O (stereo not given) | – | > 20.4 µM | 3.47 µM
21 | COc1ccc(-c2[nH]c3ccccc3c2-c2ccc(OC)cc2)cc1 | – | > 200 µM | 12.9 µM
22 | N#C/C=C/c1cccc(C#N)c1 | – | > 46.8 µM | > 46.8 µM

Row | Compound | outcome | EC50 | IC50
23 | CCOP(=O)(OCC)C(C)(CC)/N=C(\N)NC#N (stereo not given) | – | > 200 µM | > 200 µM
24 | N=C(N)Oc1ccc(Cl)cc1 | – | > 200 µM | 26.9 µM
25 | C=C1CC[N+]2(CC(C)C)CCCC12 (stereo not given) | – | > 501 µM | > 501 µM
26 | Cn1cnc([N+](=O)[O-])c1Sc1nc(N)nc2c1ncn2C1OC(CO)C(O)C1O (stereo not given) | – | > 200 µM | 0.309 µM
27 | CCOC(=O)/C(=C\c1ccc([N+](=O)[O-])cc1)[Se]c1ccccc1 | – | > 69.2 µM | 26.9 µM
28 | c1cnn(CN(Cn2cccn2)Cn2cccn2)c1 | inactive | – | –
29 | COc1ccc(N2C(=O)CSC2c2c[nH]c3ccccc23)cc1 (stereo not given) | – | > 22.4 µM | > 22.4 µM
30 | CC(=O)Nc1ccc(C2=N/C(=C\c3ccc(Cl)cc3)C(=O)O2)cc1 | – | > 11 µM | > 11 µM
31 | CC1CCn2c(=S)[nH]c3cccc(c32)N1 (stereo not given) | – | 42.7 µM | 182 µM
32 | c1cncc(-c2ncc3cccnc3n2)c1 | – | > 100 µM | > 100 µM
33 | CCN1c2ccccc2NC(=S)c2c1n[nH]c2-c1ccccc1 | – | > 200 µM | 53.7 µM
34 | CC1(C)CCc2ccc(OCCC#N)cc2O1 | inactive | – | –
35 | CCOC(=O)c1c(N)sc2c1C(C(=O)OCC)CCC2 (stereo not given) | – | > 200 µM | 112 µM
36 | COC(=O)[C@@H]1CCCCC[C@H]2C(CO)=C(C)C(=O)C12 (stereo not given in full) | – | > 200 µM | > 200 µM
37 | OCCN(CCO)c1ncnc2c1sc(=S)n2-c1ccccc1 | – | > 724 µM | 282 µM
38 | c1cncc(CN2CCCC2)c1 | inactive | – | –
39 | COc1ccc(N=N/C(=N/NC(=O)c2cc(Cl)ccc2C(=O)c2ccccc2)c2ccc(N(CCC#N)CCC#N)cc2C)cc1 | – | > 100 µM | 14.1 µM
40 | O=C(O)/C(=C\c1cc2c(cc1[N+](=O)[O-])OCO2)c1cc2c(cc1Br)OCO2 | – | > 200 µM | 110 µM
41 | OCCN1CCN(CCCN2c3ccccc3Sc3ccc(Cl)cc32)CC1 | – | > 200 µM | 10 µM
42 | COc1ccc([C@H]2CC3C(=O)N(c4ccc(OC)cc4)C(=O)C3c3[nH]c4ccccc4c32)cc1 (stereo not given in full) | – | > 1.66 µM | > 1.66 µM
43 | COc1cccc(C2(C#N)CCN(C)CC2)c1 | – | > 1070 µM | 537 µM
44 | COc1ccc(-[n+]2nc(S(=O)(=O)O)c(/C=C/c3ccc(N(C)C)cc3)cc2C#N)cc1 | – | > 151 µM | > 151 µM

Row | Compound | outcome | EC50 | IC50
45 | N.N.N.N.O=S(=O)([O-])[O-].[Co+3].[OH3+].[OH3+] | – | > 39.8 µM | 38.9 µM
46 | c1cc2c(cc1NC1=NCCO1)OCO2 | – | > 200 µM | 58.9 µM
47 | COc1ccc(N2C(=O)C3c4[nH]c5ccc([N+](=O)[O-])cc5c4C4CCC(C(C)(C)C)CC4C3C2=O)cc1 (stereo not given) | – | > 200 µM | 18.2 µM
48 | CC(=O)Nc1ccc(/C=C(\NC(=O)c2ccccc2)C(=O)NNS(=O)(=O)c2ccc(C)cc2)cc1 | – | > 52.5 µM | > 52.5 µM
49 | O=C(N/N=C/c1ccccn1)c1ccccc1[O-].O=C(N/N=C/c1ccccn1)c1ccccc1[O-].[Co+2] | – | > 200 µM | 33.9 µM
50 | Cc1ccc2oc(=O)c(C#N)c(/C=C/c3ccc(Cl)cc3)c2c1 | – | > 200 µM | > 200 µM
51 | COc1ccc(CN2C(=S)SC(c3ccc(Cl)cc3)N2c2ccc(OC)cc2)cc1 (stereo not given) | – | > 200 µM | > 200 µM
52 | COc1ccccc1C(O)(c1ccccc1)C(O)(c1ccccc1)c1ccccc1OC (stereo not given) | – | > 15.8 µM | > 15.8 µM
53 | COc1cc(OC)c(C(=O)c2cccs2)cc1N | inactive | – | –
54 | NC1=C(c2nc(-c3ccccc3)cs2)C(c2ccc(Br)cc2)c2c(c3ccccc3oc2=O)O1 (stereo not given) | – | > 200 µM | > 200 µM
55 | O=C(Cc1ccccc1)NN1C(=O)C(Cl)C1c1ccccc1 (stereo not given) | – | > 31.6 µM | > 31.6 µM
56 | NCCCC[C@H](NC(=O)[C@H](CS)NC(=O)[C@@H](N)Cc1cnc[nH]1)C(=O)N[C@H](Cc1ccc(O)cc1)C(=O)N[C@@H](Cc1c[nH]c2ccccc12)C(=O)N[C@@H](Cc1c[nH]c2ccccc12)C(N)=O | – | > 200 µM | > 200 µM
57 | Cc1cc(C2(c3cc(C)c(O)cc3C)OS(=O)(=O)c3ccccc32)c(C)cc1O | inactive | – | –
58 | CC(=O)Nc1ccc(-c2nnc(SCC(=O)Nc3ccccc3)o2)cc1 | – | > 37.2 µM | 20.9 µM
59 | CCNCC(O)COc1ccc2c(c1)[n+]([O-])nc(N)[n+]2[O-] (stereo not given) | – | > 200 µM | 13.8 µM
60 | CC(=O)c1c(-c2ccco2)c(C#N)c(=S)n(C2OC(CO)C(O)C(O)C2O)c1C (stereo not given) | – | > 200 µM | 87.1 µM
61 | O=c1[nH]c(Nc2cccc(CO)c2)nc2nc[nH]c12 | – | > 200 µM | > 200 µM
62 | N#CC(C(=O)/C(=N/N)C(C#N)c1ccc(Cl)cc1)c1ccc(Cl)cc1 (stereo not given) | – | > 676 µM | > 676 µM
63 | C=C1c2nc3ccccc3n2C=C(c2ccc(C)cc2)N1c1ccc(OC)cc1 | – | > 200 µM | 11.5 µM
64 | Cc1cc(-c2ccc(N=Nc3c(S(=O)(=O)O)cc4cc(S(=O)(=O)O)cc(N)c4c3O)c(C)c2)ccc1N=Nc1ccc2c(S(=O)(=O)O)ccc(N)c2c1O | inactive | – | –
65 | O=C(CC/C=C(/CS(=O)(=O)c1ccccc1)S(=O)(=O)c1ccccc1)c1ccccc1 | – | > 100 µM | > 100 µM
66 | CC/C(=N/OC(=O)N(CC)CC)c1ccccc1 | – | > 200 µM | 117 µM

Row | Compound | outcome | EC50 | IC50
67 | COC(=O)C(=O)C(CC(=O)Nc1ccc(C)cc1)C(=O)OC (stereo not given) | – | > 309 µM | > 309 µM
68 | CC(C)[C@@H]1ON1C(C)c1ccccc1 (stereo not given in full) | – | > 200 µM | > 200 µM
69 | C=CC12CCCCC1CC(C(=O)OC)=C(O)C2 (stereo not given) | inactive | – | –
70 | N#Cc1cccc2c1Nc1ccccc1S2 | – | > 23.4 µM | > 23.4 µM
71 | S=C(NC1CCCCC1)SSSC(=S)NC1CCCCC1 | – | > 200 µM | 27.5 µM
72 | COc1ccc(-c2cc(-c3ccccc3)nc3c2CC(=O)Nc2ccccc2-3)cc1OC | – | > 100 µM | 15.5 µM
73 | CC(C)(C)c1cc(/C=C/C(=O)CC(=O)/C=C/c2cc(C(C)(C)C)c(O)c(C(C)(C)C)c2)cc(C(C)(C)C)c1O | – | > 200 µM | > 200 µM
74 | CCOC(=O)c1cc(=O)n(C)c(=O)n1C | inactive | – | –
75 | O=C(O)CCC(NC(=O)c1ccccc1C(=O)O)C(=O)O (stereo not given) | – | > 200 µM | > 200 µM
76 | Cn1nc(-c2ccc(Cl)c(Cl)c2)[n+]([O-])c2c(=O)n(C)c(=O)nc1-2 | – | > 200 µM | 1.38 µM
77 | O=C(Nc1cc(Cl)c(Cl)cc1Cl)C(=O)C1C=CCS1(=O)=O (stereo not given) | – | > 51.3 µM | > 51.3 µM
78 | CCOC(=O)/C=C(\CCOC1CCCCO1)[Si](C)(C)c1ccccc1 (stereo not given) | – | > 20 µM | > 20 µM
79 | CC(C)(C)NC(=O)NC12CC3CC(CC(F)(C3)C1)C2 | – | > 26.9 µM | > 26.9 µM
80 | CN(C)c1ccc(C(=CC=C2C(=O)NC(=O)NC2=O)c2ccc(N(C)C)cc2)cc1 | – | > 4.9 µM | > 4.9 µM
81 | CCCCCCCCCCCCC/C=C/[C@H]1[C@@H](C(=O)OC)N1S(=O)c1ccc(C)cc1 (stereo not given in full) | – | > 200 µM | 74.1 µM
82 | CC(=O)NC1C(OCc2ccccc2)OC(CO)C(O)C1OCC(=O)N1CCCC1C(=O)NC(CCC(=O)NCCCCCNc1c2ccccc2nc2cccc([N+](=O)[O-])c12)C(N)=O (stereo not given) | – | > 200 µM | 0.209 µM
83 | O=C1/C(=C/c2cccc([N+](=O)[O-])c2)SC(=S)N1C1CC1 | – | > 32.4 µM | > 32.4 µM
84 | CSc1nnc2sc(=S)[nH]n12 | – | > 200 µM | > 200 µM
85 | C[C@H]1OCN2C(=O)c3ccccc3SC(=O)[C@H]12 | – | > 200 µM | > 200 µM
86 | CC/C(Br)=C1\CC2c3c(c4ccccc4n3C)CC(C1=O)N2Cc1ccccc1 (stereo not given) | inactive | – | –
